Measurements taken from ChEMBL document CHEMBL4431294 (Medchemcomm, 2016).
Converted amounts (≈) assume the structure as drawn.

Columns and labels:
[1] = system: Klebsiella pneumoniae; assay: Antibacterial activity against Klebsiella pneumoniae ATCC 10031; type: functional
[2] = system: Staphylococcus aureus; assay: Antibacterial activity against Staphylococcus aureus harboring ANT(4'); type: functional
[3] = system: Pseudomonas aeruginosa; assay: Antibacterial activity against Pseudomonas aeruginosa ATCC 27853 harboring APH(3'); type: functional
[4] = system: Staphylococcus aureus; assay: Antibacterial activity against Staphylococcus aureus ATCC 29213; type: functional
[5] = system: Escherichia coli; assay: Antibacterial activity against Escherichia coli ATCC 25922; type: functional
[6] = Binding affinity to pre-microRNA-27a (unknwon origin) at 500 nM by spectrofluorometric method
[7] = target: Rev responsive element (RRE) RNA; assay: Displacement of fluorescein-labeled RevF1 from HIV1 66-nucleotide RRE RNA by fluorescence anisotropy method; type: nucleic-acid assay, Human immunodeficiency virus 1
[8] = system: Bordetella bronchiseptica; assay: Antibacterial activity against Bordetella bronchiseptica; type: functional
[9] = system: Staphylococcus aureus; assay: Antibacterial activity against Staphylococcus aureus; type: functional
[10] = system: Mycobacterium tuberculosis; assay: Antibacterial activity against Mycobacterium tuberculosis 607; type: functional
[11] = system: Klebsiella pneumoniae; assay: Antibacterial activity against Klebsiella pneumoniae; type: functional
[12] = system: Salmonella enterica subsp. enterica serovar Paratyphi B; assay: Antibacterial activity against Salmonella schottmuelleri; type: functional
[13] = Antibacterial activity against Eberthella typhosa; type: functional
[14] = system: Escherichia coli; assay: Antibacterial activity against Escherichia coli; type: functional
[15] = system: Proteus vulgaris; assay: Antibacterial activity against Proteus vulgaris; type: functional
[16] = system: Bacillus subtilis; assay: Antibacterial activity against Bacillus subtilis; type: functional
[17] = system: Pseudomonas aeruginosa; assay: Antibacterial activity against Pseudomonas aeruginosa after 12 hrs; type: functional, organism-based
[18] = Binding affinity to 22-mer TAT triplex DNA (unknown origin) at 8 uM by isothermal titration calorimetry

NCC1=CC[C@@H](N)[C@@H](O[C@H]2[C@H](O[C@@H]3O[C@H](CO)[C@@H](O[C@H]4O[C@@H](CN)[C@@H](O)[C@H](O)[C@H]4N)[C@H]3O)[C@@H](O)[C@H](N)C[C@@H]2N)O1
MIC [1]: 0.5 to 2 µg/mL (≈ 0.861 to 3.44 µM) | MIC [2]: 0.5 to 2 µg/mL (≈ 0.861 to 3.44 µM) | MIC [3]: 0.5 to 2 µg/mL (≈ 0.861 to 3.44 µM) | MIC [4]: 0.5 to 2 µg/mL (≈ 0.861 to 3.44 µM) | MIC [5]: 0.5 to 2 µg/mL (≈ 0.861 to 3.44 µM)

CN1CCN(c2ccc3nc(-c4ccc5[nH]c(-c6ccc(OCc7cn(CCCCC(=O)C(CCn8cc(OCc9cn(C[C@H]%10O[C@@H](O[C@@H]%11[C@@H](O)[C@H](N)C[C@H](N)[C@H]%11O[C@H]%11O[C@H](CN)[C@@H](O)[C@H](O)[C@H]%11N)[C@H](O)[C@@H]%10O[C@H]%10O[C@@H](CN)[C@@H](O)[C@H](O)[C@H]%10N)nn9)nn8)CCn8cc(OCc9cn(C[C@H]%10O[C@@H](O[C@@H]%11[C@@H](O)[C@H](N)C[C@H](N)[C@H]%11O[C@H]%11O[C@H](CN)[C@@H](O)[C@H](O)[C@H]%11N)[C@H](O)[C@@H]%10O[C@H]%10O[C@@H](CN)[C@@H](O)[C@H](O)[C@H]%10N)nn9)nn8)nn7)cc6)cc5c4)[nH]c3c2)CC1
Ka [6]: 1.2 to 7.4 ×10⁸ /M

NCC1O[C@H](O[C@H]2[C@@H](O)[C@H](O[C@@H]3[C@@H](O)[C@H](N)C[C@H](N)[C@H]3O[C@H]3O[C@H](CN)[C@@H](O)[C@H](O)[C@H]3N)O[C@@H]2CNc2c3ccccc3nc3ccccc23)[C@H](N)[C@@H](O)[C@@H]1O (some centres not stated)
Kd [7]: ≤ 10 nM

NC[C@H]1O[C@H](O[C@H]2[C@H](O)[C@@H](O)[C@H](N)C[C@@H]2N)[C@H](N)[C@@H](O)[C@@H]1O [NEAMINE]
MIC [8]: 3.3 µg/mL (≈ 10.2 µM) | MIC [9]: 0.13 µg/mL (≈ 0.403 µM) | MIC [10]: 5 µg/mL (≈ 15.5 µM) | MIC [11]: 0.5 µg/mL (≈ 1.55 µM) | MIC [12]: 1 µg/mL (≈ 3.1 µM) | MIC [13]: 0.17 µg/mL (≈ 0.527 µM) | MIC [14]: 1 µg/mL (≈ 3.1 µM) | MIC [15]: < 0.33 µg/mL | MIC [16]: 1 µg/mL (≈ 3.1 µM)

NCC1O[C@H](O[C@H]2[C@@H](O)[C@H](O[C@@H]3[C@@H](O)[C@H](N)C[C@H](N)[C@H]3O[C@H]3O[C@H](CN)[C@@H](O)[C@H](O)[C@H]3N)O[C@@H]2CO)[C@H](N)[C@@H](O)[C@@H]1O (some centres not stated)
MIC [8]: 0.5 µg/mL (≈ 0.813 µM) | MIC [9]: 0.017 µg/mL (≈ 0.0277 µM) | MIC [10]: 0.33 µg/mL (≈ 0.537 µM) | MIC [11]: 0.05 µg/mL (≈ 0.0813 µM) | MIC [12]: 0.1 µg/mL (≈ 0.163 µM) | MIC [13]: 0.033 µg/mL (≈ 0.0537 µM) | MIC [14]: 0.1 µg/mL (≈ 0.163 µM) | MIC [15]: 1 µg/mL (≈ 1.63 µM) | MIC [16]: 0.01 µg/mL (≈ 0.0163 µM)

NC[C@H]1O[C@H](O[C@H]2[C@H](NCCCCCCCCNC(=O)c3cc4c(cn3)[nH]c3ccccc34)[C@@H](O)[C@H](N)C[C@@H]2N)[C@H](N)[C@@H](O)C1O (single isomer, unassigned)
IC50 [17]: 85.4 µg/mL (≈ 133 µM)

CC(=O)c1ccc2c(ccc3nc4c(NCCCNC(=O)NCCSC[C@H]5O[C@@H](O[C@@H]6[C@@H](O)[C@H](N)C[C@H](N)[C@H]6O[C@H]6O[C@H](CN)[C@@H](O)[C@H](O)[C@H]6N)[C@H](O)[C@@H]5O[C@H]5OC(CN)[C@@H](O)[C@H](O)[C@H]5N)nc5ccccc5c4nc32)c1 (some centres not stated)
Kd [18]: 27 nM
